# Assay results as given in PubChem BioAssay (NCI).
#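 How tested: cells in 96-well plates exposed to compound for 48 hours at five concentrations. The concentration for 50% growth inhibition is given as GI50. TGI is the concentration that stops growth completely.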
# Tests used:
# Assay in all cases: NCI tumour cell line growth inhibition, 48 h
# SF-268 CNS = tested on: SF-268 CNS
# A549 NSCLC = tested on: A549 NSCLC
# K-562 leukemia = tested on: K-562 leukemia
# MDA-MB-231 breast = tested on: MDA-MB-231 breast
# CCRF-CEM leukemia = tested on: CCRF-CEM leukemia
# HS 578T breast = tested on: HS 578T breast
# EKVX NSCLC = tested on: EKVX NSCLC
# OVCAR-4 ovarian = tested on: OVCAR-4 ovarian
# HL-60(TB) leukemia = tested on: HL-60(TB) leukemia
# OVCAR-3 ovarian = tested on: OVCAR-3 ovarian
# NCI-H460 lung = tested on: NCI-H460 lung
# HCC-2998 colon = tested on: HCC-2998 colon
# OVCAR-5 ovarian = tested on: OVCAR-5 ovarian
# 786-0 renal = tested on: 786-0 renal
# IGROV1 ovarian = tested on: IGROV1 ovarian
# SK-OV-3 ovarian = tested on: SK-OV-3 ovarian
# MOLT-4 leukemia = tested on: MOLT-4 leukemia
# DU-145 prostate = tested on: DU-145 prostate
# SK-MEL-2 melanoma = tested on: SK-MEL-2 melanoma
# NCI-H522 lung = tested on: NCI-H522 lung
# T-47D breast = tested on: T-47D breast
# HOP-62 NSCLC = tested on: HOP-62 NSCLC
# NCI-H23 lung = tested on: NCI-H23 lung
# SW-620 colon = tested on: SW-620 colon
# NCI-H226 lung = tested on: NCI-H226 lung
# UO-31 renal = tested on: UO-31 renal
# SN12C renal = tested on: SN12C renal
# MALME-3M melanoma = tested on: MALME-3M melanoma
# PC-3 prostate = tested on: PC-3 prostate
smiles,measurement,setting,value
O=C(c1ccccc1)N(C(=S)NCCc1ccc(Cl)cc1)c1ccc(Cl)cc1,TGI,SF-268 CNS,18.4 µM
same,GI50,A549 NSCLC,19.4 µM
same,TGI,A549 NSCLC,49.9 µM
same,GI50,K-562 leukemia,74.6 µM
same,TGI,K-562 leukemia,> 100 µM
same,GI50,MDA-MB-231 breast,6.95 µM
same,TGI,MDA-MB-231 breast,20.4 µM
same,GI50,CCRF-CEM leukemia,2.59 µM
same,TGI,CCRF-CEM leukemia,10.7 µM
same,GI50,HS 578T breast,13.8 µM
same,TGI,HS 578T breast,> 100 µM
same,GI50,EKVX NSCLC,17.4 µM
same,TGI,EKVX NSCLC,38.8 µM
same,GI50,OVCAR-4 ovarian,13.7 µM
same,TGI,OVCAR-4 ovarian,29.3 µM
same,GI50,HL-60(TB) leukemia,6.77 µM
same,TGI,HL-60(TB) leukemia,> 100 µM
same,GI50,OVCAR-3 ovarian,3.75 µM
same,TGI,OVCAR-3 ovarian,13.3 µM
same,GI50,NCI-H460 lung,19.4 µM
same,TGI,NCI-H460 lung,42.4 µM
same,GI50,HCC-2998 colon,8.54 µM
same,TGI,HCC-2998 colon,22.6 µM
same,GI50,OVCAR-5 ovarian,19.6 µM
same,TGI,OVCAR-5 ovarian,36.4 µM
same,GI50,786-0 renal,14.7 µM
same,TGI,786-0 renal,28.6 µM
same,GI50,IGROV1 ovarian,3.88 µM
same,TGI,IGROV1 ovarian,16.2 µM
same,GI50,SK-OV-3 ovarian,18.3 µM
same,TGI,SK-OV-3 ovarian,32.8 µM
same,GI50,MOLT-4 leukemia,3.14 µM
same,TGI,MOLT-4 leukemia,> 100 µM
same,GI50,DU-145 prostate,5.22 µM
same,TGI,DU-145 prostate,16.7 µM
same,GI50,SK-MEL-2 melanoma,20.2 µM
same,TGI,SK-MEL-2 melanoma,36.4 µM
same,GI50,NCI-H522 lung,8.3 µM
same,TGI,NCI-H522 lung,22.9 µM
same,GI50,T-47D breast,6.24 µM
same,TGI,T-47D breast,25.3 µM
same,GI50,HOP-62 NSCLC,20.2 µM
same,TGI,HOP-62 NSCLC,37.9 µM
same,GI50,NCI-H23 lung,13 µM
same,TGI,NCI-H23 lung,31.4 µM
same,GI50,SW-620 colon,4.49 µM
same,TGI,SW-620 colon,16.7 µM
same,GI50,NCI-H226 lung,16.7 µM
same,TGI,NCI-H226 lung,39.4 µM
same,GI50,UO-31 renal,2.61 µM
same,TGI,UO-31 renal,8.85 µM
same,GI50,SN12C renal,7.45 µM
same,TGI,SN12C renal,20.7 µM
same,GI50,MALME-3M melanoma,11.8 µM
same,TGI,MALME-3M melanoma,28.6 µM
same,GI50,PC-3 prostate,6.94 µM
same,TGI,PC-3 prostate,26.2 µM
